# Assay results as given in ChEMBL document CHEMBL3745636, “Dibenz[b,f]oxepin and Antimycobacterial Chalcone Constituents of Empetrum nigrum” (J Nat Prod, 2015).
# Assays:
# [1] = tested on: Mycobacterium tuberculosis; assay: Antimycobacterial activity against Mycobacterium tuberculosis H37Ra ATCC 25177 assessed as growth inhibition after 24 to 168 hrs by microplate resazurin assay; type: functional, organism-based
# HEK293 = assay: Cytotoxicity against human HEK293 cells assessed as cell viability after 24 hrs by cell titer-blue assay; type: cell-based; conditions: HEK293, 24 h
SMILES,IC50 [1] [µM],MIC90 [1] [µM],IC50 (HEK293) [µM]
CC1(C)CC[C@]2(C(=O)O)CC[C@]3(C)C(=CC[C@@H]4[C@@]5(C)CC[C@H](O)C(C)(C)[C@@H]5CC[C@]43C)[C@@H]2C1 [OLEANOLIC_ACID],214,> 876,329
O=C(CCc1ccccc1)c1ccc(O)cc1O,32.8,206,249
CC1(C)CC[C@]2(CO)CC[C@]3(C)C(=CC[C@@H]4[C@@]5(C)CC[C@H](O)C(C)(C)[C@@H]5CC[C@]43C)[C@@H]2C1 [ERYTHRODIOL],157,> 903,613
COc1c(O)cc2c(c1OC)-c1c(O)cccc1CC2,113,734,289
COc1cc2c(c(O)c1OC)Oc1ccccc1CC2,105,367,355
"O=C(/C=C/c1ccccc1)c1ccc(O)cc1O [2',4'-DIHYDROXYCHALCONE]",23.8,104,109
COc1cc(CCc2ccccc2O)cc(OC)c1OC,179,694,113
COc1c(O)cc2c(c1OC)Oc1ccccc1CC2,94.4,367,167
COc1cc(CCc2ccccc2O)cc(O)c1OC,900,> 1460,298
